Measured values: US10246451B2, “Propionic acid derivatives and methods of use thereof” (Aviara Pharmaceuticals, Inc., priority 2017, dated 2019)

Each molecule was assayed against T1, α4β7 integrin (Homo sapiens, UniProt P13612+P26010) (assay: a4b7 IC50 (inhibition of α4β7 integrin; no method described)).
T1 sequence (P13612 34-1032): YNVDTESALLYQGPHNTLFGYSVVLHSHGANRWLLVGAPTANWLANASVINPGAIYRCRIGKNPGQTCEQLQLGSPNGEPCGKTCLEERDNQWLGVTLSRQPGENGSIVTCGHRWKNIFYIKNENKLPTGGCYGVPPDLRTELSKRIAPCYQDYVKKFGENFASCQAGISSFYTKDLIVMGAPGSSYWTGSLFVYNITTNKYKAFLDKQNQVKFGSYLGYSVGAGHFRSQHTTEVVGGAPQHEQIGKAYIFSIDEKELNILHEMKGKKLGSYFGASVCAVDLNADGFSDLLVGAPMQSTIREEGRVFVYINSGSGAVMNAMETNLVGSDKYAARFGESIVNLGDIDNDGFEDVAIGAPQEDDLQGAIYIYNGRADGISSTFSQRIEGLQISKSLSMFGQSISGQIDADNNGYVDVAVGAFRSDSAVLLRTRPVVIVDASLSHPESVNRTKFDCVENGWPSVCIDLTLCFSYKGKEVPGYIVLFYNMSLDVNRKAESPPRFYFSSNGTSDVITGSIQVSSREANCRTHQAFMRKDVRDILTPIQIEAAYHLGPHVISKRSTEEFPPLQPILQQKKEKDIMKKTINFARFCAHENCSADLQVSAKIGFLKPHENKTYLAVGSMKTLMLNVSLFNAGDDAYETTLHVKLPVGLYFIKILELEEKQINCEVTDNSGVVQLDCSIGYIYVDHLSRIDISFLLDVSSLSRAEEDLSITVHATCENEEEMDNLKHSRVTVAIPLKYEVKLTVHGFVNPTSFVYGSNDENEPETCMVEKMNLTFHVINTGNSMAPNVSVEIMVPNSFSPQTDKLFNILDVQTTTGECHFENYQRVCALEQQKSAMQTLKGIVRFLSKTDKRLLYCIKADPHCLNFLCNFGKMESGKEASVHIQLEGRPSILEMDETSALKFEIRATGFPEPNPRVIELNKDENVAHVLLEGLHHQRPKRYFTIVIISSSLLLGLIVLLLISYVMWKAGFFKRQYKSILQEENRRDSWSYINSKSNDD
T1 sequence (P26010 20-798): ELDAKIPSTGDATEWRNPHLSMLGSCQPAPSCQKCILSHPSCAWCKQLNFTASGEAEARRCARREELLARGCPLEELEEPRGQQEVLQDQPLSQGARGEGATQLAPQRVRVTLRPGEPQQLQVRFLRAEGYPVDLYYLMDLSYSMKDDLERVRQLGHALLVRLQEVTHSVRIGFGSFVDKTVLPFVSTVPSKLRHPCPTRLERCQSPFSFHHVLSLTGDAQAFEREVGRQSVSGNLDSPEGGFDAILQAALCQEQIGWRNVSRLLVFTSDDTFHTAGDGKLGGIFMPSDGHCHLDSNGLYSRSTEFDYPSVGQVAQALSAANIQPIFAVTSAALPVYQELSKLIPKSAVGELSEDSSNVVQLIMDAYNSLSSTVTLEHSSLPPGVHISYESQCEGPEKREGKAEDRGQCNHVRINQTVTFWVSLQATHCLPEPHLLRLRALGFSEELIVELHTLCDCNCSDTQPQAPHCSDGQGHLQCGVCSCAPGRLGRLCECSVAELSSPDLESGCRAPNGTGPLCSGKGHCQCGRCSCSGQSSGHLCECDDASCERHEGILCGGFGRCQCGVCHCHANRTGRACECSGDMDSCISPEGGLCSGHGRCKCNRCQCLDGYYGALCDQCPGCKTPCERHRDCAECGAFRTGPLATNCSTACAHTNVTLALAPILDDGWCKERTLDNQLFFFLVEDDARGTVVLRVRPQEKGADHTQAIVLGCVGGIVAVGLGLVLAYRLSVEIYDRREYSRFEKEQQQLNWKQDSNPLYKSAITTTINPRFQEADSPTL
Type: binding

Q: How did the IC50 turn out when `Cc1ccccc1C(F)(F)c1cccc([C@H](CC(=O)O)NC(=O)Nc2c(O)ccn(C)c2=O)c1` [Compound 3-65, sodium (S)-3-(3-(difluoro(o-tolyl)methyl)phenyl)-3-(3-(1-methyl-4-oxido-2-oxo-1,2-dihydropyridin-3-yl)ureido)propanoate] was run?
A: The IC50 was less than 200 nM.

Q: `Cn1ccc(O)c(NC(=O)N[C@@H](CC(=O)O)c2cccc(Oc3ccccc3)c2)c1=O` [Compound 3-71, sodium (S)-3-(3-(1-methyl-4-oxido-2-oxo-1,2-dihydropyridin-3-yl)ureido)-3-(3-phenoxyphenyl)propanoate] was tested. Which IC50 did it give?
A: The IC50 was less than 20 nM.

The molecules below were run against α4β1 integrin (Homo sapiens, UniProt P05556+P13612) (assay: a4b1 IC50 (inhibition of α4β1 integrin; no method described)).
α4β1 integrin, sequence (P05556 21-798, one chain of several): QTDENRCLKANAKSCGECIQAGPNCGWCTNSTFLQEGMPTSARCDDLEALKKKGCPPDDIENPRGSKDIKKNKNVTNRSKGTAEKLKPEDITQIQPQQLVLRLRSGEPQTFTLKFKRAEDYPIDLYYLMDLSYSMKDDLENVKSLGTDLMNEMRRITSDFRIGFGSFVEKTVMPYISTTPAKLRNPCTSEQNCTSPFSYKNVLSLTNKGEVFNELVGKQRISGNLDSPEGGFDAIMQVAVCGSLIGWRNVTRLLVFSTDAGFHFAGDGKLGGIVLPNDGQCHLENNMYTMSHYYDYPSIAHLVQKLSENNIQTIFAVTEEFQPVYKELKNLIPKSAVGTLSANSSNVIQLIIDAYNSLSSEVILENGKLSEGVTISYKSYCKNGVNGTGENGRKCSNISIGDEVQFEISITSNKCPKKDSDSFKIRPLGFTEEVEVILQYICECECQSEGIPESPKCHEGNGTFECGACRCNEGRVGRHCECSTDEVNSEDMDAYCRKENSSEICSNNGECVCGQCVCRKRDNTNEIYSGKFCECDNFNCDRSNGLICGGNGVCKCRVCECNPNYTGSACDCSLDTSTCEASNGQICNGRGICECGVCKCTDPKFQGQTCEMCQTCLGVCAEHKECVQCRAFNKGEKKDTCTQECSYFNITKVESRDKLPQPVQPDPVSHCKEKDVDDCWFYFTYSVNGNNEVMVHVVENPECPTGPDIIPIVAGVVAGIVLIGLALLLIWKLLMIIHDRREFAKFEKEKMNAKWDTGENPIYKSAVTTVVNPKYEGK
Type: binding

Q: How did the IC50 turn out when `Cc1ccccc1C(F)(F)c1cccc([C@H](CC(=O)O)NC(=O)Nc2c(O)ccn(C)c2=O)c1` [Compound 3-65, sodium (S)-3-(3-(difluoro(o-tolyl)methyl)phenyl)-3-(3-(1-methyl-4-oxido-2-oxo-1,2-dihydropyridin-3-yl)ureido)propanoate] was run?
A: The IC50 was less than 20 nM.

Q: How did the IC50 turn out when `Cn1ccc(O)c(NC(=O)N[C@@H](CC(=O)O)c2cccc(Oc3ccccc3)c2)c1=O` [Compound 3-71, sodium (S)-3-(3-(1-methyl-4-oxido-2-oxo-1,2-dihydropyridin-3-yl)ureido)-3-(3-phenoxyphenyl)propanoate] was run?
A: The IC50 was less than 200 nM.

Q: For `Cn1ccc(O)c(NC(=O)N[C@@H](CC(=O)O)c2cccc(Oc3ccc(F)cc3F)c2)c1=O` [Compound 3-86, sodium(S)-3-(3-(2,4-difluorophenoxy)phenyl)-3-(3-(1-methyl-4-oxido-2-oxo-1,2-dihydropyridin-3-yl)ureido)propanoate], which IC50 is on record?
A: Its IC50 is less than 20 nM.

Q: How did the IC50 turn out when `Cc1cccc(C)c1Oc1cccc([C@H](CC(=O)O)NC(=O)Nc2c(O)ccn(C)c2=O)c1` [Compound 3-87, sodium(S)-3-(3-(2,6-dimethylphenoxy)phenyl)-3-(3-(1-methyl-4-oxido-2-oxo-1,2-dihydropyridin-3-yl)ureido)propanoate] was run?
A: Its IC50 is less than 20 nM.

Q: For `Cn1ccc(O)c(NC(=O)N[C@@H](CC(=O)O)c2cccc(Cc3ccccc3C(F)(F)F)c2)c1=O` [Compound 3-88, sodium (S)-3-(3-(1-methyl-4-oxido-2-oxo-1,2-dihydropyridin-3-yl)ureido)-3-(3-(2-(trifluoromethyl)benzyl)phenyl)propanoate], which IC50 is on record?
A: The IC50 was less than 20 nM.

Q: How did the IC50 turn out when `Cn1ccc(O)c(NC(=O)N[C@@H](CC(=O)O)c2cccc(Cc3cccc(C(F)(F)F)c3)c2)c1=O` [Compound 3-89, sodium (S)-3-(3-(1-methyl-4-oxido-2-oxo-1,2-dihydropyridin-3-yl)ureido)-3-(3-(3-(trifluoromethyl)benzyl)phenyl)propanoate] was run?
A: Its IC50 is less than 20 nM.

Q: With `Cn1ccc(O)c(NC(=O)N[C@@H](CC(=O)O)c2cccc(Cc3ccc(C(F)(F)F)cc3)c2)c1=O` [Compound 3-90, sodium (S)-3-(3-(1-methyl-4-oxido-2-oxo-1,2-dihydropyridin-3-yl)ureido)-3-(3-(4-(trifluoromethyl)benzyl)phenyl)propanoate] as the molecule, how does the IC50 read?
A: The IC50 was less than 20 nM.

Q: Which IC50 does the source give for `Cn1ccc(O)c(NC(=O)N[C@@H](CC(=O)O)c2cccc(Cc3ccccc3OC(F)F)c2)c1=O` [Compound 3-91, sodium(S)-3-(3-(2-(difluoromethoxy)benzyl)phenyl)-3-(3-(1-methyl-4-oxido-2-oxo-1,2-dihydropyridin-3-yl)ureido) propanoate] here?
A: Its IC50 is less than 20 nM.

Q: Which IC50 does the source give for `COc1ccccc1Cc1cccc([C@H](CC(=O)O)NC(=O)Nc2c(O)ccn(C)c2=O)c1` [Compound 3-92] here?
A: Its IC50 is less than 20 nM.

Q: How did the IC50 turn out when `Cn1ccc(O)c(NC(=O)N[C@@H](CC(=O)O)c2cccc(Cc3ccccc3F)c2)c1=O` [Compound 3-93, sodium (S)-3-(3-(2-fluorobenzyl)phenyl)-3-(3-(1-methyl-4-oxido-2-oxo-1,2-dihydro-pyridin-3-yl)ureido)propanoate] was run?
A: Its IC50 is less than 20 nM.

Q: Which IC50 does the source give for `Cc1cccc(C)c1Cc1cccc([C@H](CC(=O)O)NC(=O)Nc2c(O)ccn(C)c2=O)c1` [Compound 3-94, sodium (S)-3-(3-(2,6-dimethylbenzyl)phenyl)-3-(3-(1-methyl-4-oxido-2-oxo-1,2-dihydropyridin-3-yl)ureido)propanoate] here?
A: The IC50 was less than 20 nM.

Q: Which IC50 does the source give for `Cc1ccccc1Cc1ccc([C@H](CC(=O)O)NC(=O)Nc2c(O)ccn(C)c2=O)s1` [Compound 3-95, sodium (S)-3-(3-(1-methyl-4-oxido-2-oxo-1,2-dihydropyridin-3-yl)ureido)-3-(5-(2-methylbenzyl)thiophen-2-yl)propanoate] here?
A: The IC50 was less than 20 nM.

Q: For `Cn1ccc(O)c(NC(=O)N[C@@H](CC(=O)O)c2ccc(Cc3ccccc3)s2)c1=O` [Compound 3-96, sodium (S)-3-(5-benzylthiophen-2-yl)-3-(3-(1-methyl-4-oxido-2-oxo-1,2-dihydro-pyridin-3-yl)ureido)propanoate], which IC50 is on record?
A: The IC50 was less than 20 nM.
